From patent EP1522308A1, “Use of chlorophyll or analogues for the prevention of cytotoxic effects of dietary heme on the intestinal mucosa” (Stichting Top-Instituut Voedselwetenschappen, priority 2003, dated 2005) come the findings set out here.

Data set [1] deals with colonic epithelial cells. Description: In vivo colonic epithelial cell proliferation, [methyl-3H]thymidine incorporation into DNA. The arrangement: species or system rats. In general terms: Dividing cells build labelled thymidine or BrdU into new DNA.
Experimental: About eight-week-old, outbred male Wistar rats (Harlan Horst/WU, SPF) were housed individually in metabolic cages in a room with controlled temperature (± 20°C), relative humidity (50-60%) and a light/dark cycle (6 AM to 6 PM). Animals were acclimatized to housing conditions for 5 days before start of the experiment.
In the first study we tested whether spinach prevents the effect of dietary heme. […] During two weeks, four groups of eight rats were fed purified diets. The control group consumed a diet which contained per kg, 200 g casein, 532 g dextrose, 200 g fat (160 g palm fat and 40 g corn oil), 20 g cellulose and 20 mmol calcium phosphate (CaPO4·2H2O, Fluka Chemie Buchs, Switzerland). […]
After the experimental feeding period of 14 days, we quantified the colon epithelial cell proliferation as DNA-replication, using [methyl-^3H]thymidine incorporation into DNA. […] These homogenates were analyzed for ^3H-thymidine incorporation and for total DNA content. […] A sample (0.5 ml) of the hydrolysate was dissolved in 15 ml Aqua Luma (Lumac-LSC BV., Groningen, The Netherlands) and counted with corrections for quenching on a Beckman LS-7500 liquid scintillation counter. DNA content was determined using the diphenylamine reaction with calf thymus DNA as standard (Sigma) [24].
Data set [2] concerns colonocytes. Description: Quantification of epithelial (host) DNA in feces by real-time PCR for the β-globin gene. In kind it is in vivo, rats. The method, then: Food and demineralised drinking water were supplied ad libitum.
Fecal host DNA content was quantified using DNA extraction and real-time PCR, using rat-specific probe and primers for the β-globin gene. In short, DNA was isolated from 20 mg freeze-dried feces using the QIAamp DNA stool mini kit (Westburg, Leusden, The Netherlands) following the recommendations of the manufacturer for human DNA analysis. […] The standard DNA used for the quantification of the DNA in the feces was isolated from rat spleen, using the Wizard Genomic DNA purification kit (Promega Corporation, Madison, WI, USA). The real-time PCR was performed using the ABI prism 7700 Sequence Detection system (PE Applied Biosystems, Nieuwerkerk a/d IJssel, The Netherlands). Universal Taqman Master Mix and Taqman Exogenous Internal positive Control (IPC) Reagent (Vic ™ probe) were purchased from Applied Biosystems and the Taqman probe containing a 5' FAM labeled fluorescent reporter dye (6-carboxyfluorosein) and a 3' TAMRA quencher dye (6-carboxytetramethylrhodamine) was purchased from Proligo (Paris, France). PCR primers were synthesized by Amersham Pharmacia Biotech Custom DNA Synthesis Service (Roosendaal, The Netherlands). For amplification of host DNA 5 µl of the purified DNA (100-500 ng) was used in a volume of 50 µl, containing 1x Master Mix, 200 nM forward primer (5'-[…]-3'), 200 nM reverse primer (5'-[…]-3'), 100 nM probe (5'-[…]-3'), 1x IPC mix and 1x IPC DNA. The PCR protocol consisted of 2 min 50°C, 10 min 95°C and 40 cycles of 15 sec 95°C and 1 min 62°C.
(In qPCR the cycle at which signal appears reflects the starting amount.)

Data set [3] relates to human erythrocyte suspension. In words: Cytotoxicity of fecal water, potassium release from erythrocytes (erythrocyte bioassay). In kind it is cell-based. On the procedure:
Fecal water was prepared by reconstituting a small amount of freeze-dried feces with double-distilled water to 20 % dry weight. After homogenizing, samples were incubated for 1 hour in a shaking water bath at 37°C, with mixing every 15 min, followed by centrifugation for 20 min at 13.500 g. The supernatants were collected and centrifuged again at 14.000 g for 2 min. The osmolarity (Osmomat 030-D, Gonotec, Berlin, Germany) of the fecal waters was determined. If osmolarity differed from 300 mOsmol/L, another portion of freeze-dried feces was reconstituted with double-distilled water, adjusting the percentage dry weight to obtain fecal water with an osmolarity of 300 mOsmol/L. The fecal waters were stored at -20°C until further analysis.
(§1) Cytotoxicity of fecal water was quantified by potassium release after incubation with a human erythrocyte suspension as described previously and validated earlier with intestinal epithelial cells. The potassium content of the erythrocytes was measured with an Inductive Coupled Plasma […] Emission Spectrophotometer (ICP-AES, Varian, Mulgrave, Australia) and the cytotoxicity of fecal water was calculated and expressed as a percentage of maximal lysis.

The test system of data set [4] is colon mucosa. Description: Total DNA content of colon mucosa scrapings (diphenylamine reaction). In kind it is in vivo, rats. Conditions: spinach study. An excerpt:
After the experimental feeding period of 14 days, we quantified the colon epithelial cell proliferation as DNA-replication, using [methyl-^3H]thymidine incorporation into DNA. We choose this biochemical method because it is the most rapid, specific and quantitative marker of cell replication in vivo. Moreover, we have shown earlier that DNA-replication highly correlates with faecal water cytotoxicity. This substantiates a cause-and-effect relationship that we want to address in the present study. Non-fasted rats were injected i.p. with [methyl-^3H]thymidine (specific activity 925 GBq / mmol; dose 3.7 MBq / kg body weight; Amersham International, Amersham, UK) in 154 mM NaCl. After 2 hours the rats were killed by CO2 inhalation. The colon was removed and opened longitudinally. Colonic contents were removed by rinsing with 154 mM KCl. […] These homogenates were analyzed for ^3H-thymidine incorporation and for total DNA content. […] A sample (0.5 ml) of the hydrolysate was dissolved in 15 ml Aqua Luma (Lumac-LSC BV., Groningen, The Netherlands) and counted with corrections for quenching on a Beckman LS-7500 liquid scintillation counter. DNA content was determined using the diphenylamine reaction with calf thymus DNA as standard (Sigma).

Data set [5] relates to human erythrocyte suspension. Description: Cytotoxicity of size exclusion chromatography fractions of lipid extracts of pooled fecal water. In kind it is cell-based. Conditions: chlorophyll study, heme group: high-molecular weight components eluting around 6 min (Figure 6B). The method, then: as §1
Pooled fecal water from the different treatment groups was first purified, by adding 560 µl water and 2.5 ml diethylether (ether) to 100 µl fecal water, and after vigorous mixing, centrifugation at 1500 g for 5 minutes. The ether phase containing chlorophyll was discarded and the procedure was repeated 2 times. The remaining 660 µl sample was acidified with 60 µl HCl (final HCl concentration 1 M) and further extracted with chloroform / methanol as described earlier. The lipid-containing chloroform phase was obtained after centrifugation (10 min, 1500 g) and evaporated under nitrogen. […] The data was processed and analyzed using Shimadzu software. […] The cytotoxicity of these fractions was determined as described above, after resolubilising the samples in 50 mM NaOH and adjusting to neutral pH and 300 mOsm/L with 3-[N-morpholino]-propanesulfonic acid (MOPS).
(In general: SEC sorts molecules by how far they enter the pores of the column.)

On to chlorophyll, for which the “prevention of heme-induced epithelial hyperproliferation” value in data set [1] (chlorophyll study, added to heme diet, 1,2 mmol chlorophyll / kg diet, 14 days (Figure 3)) is recorded as “completely prevented”. Also, the “effect on heme-induced reduction of host DNA in the feces” value in data set [2] (chlorophyll study, supplemented to the heme diet (Figure 4)) is reported as “totally abolished”. Further, in data set [3] (chlorophyll study, supplemented to the heme diet, fecal water of rats (Figure 5)), the “inhibition of heme-induced increase of cytotoxicity of the fecal water” value is listed as “completely”.

Regarding hemin [heme], in data set [4] (0.5 mmol heme / kg diet), the “decrease of DNA content of the mucosa compared with the other groups” value was determined as 20%. In addition, the “DNA content of the mucosa” value in data set [4] (mean ± SEM, n=8 per group) is on record as 4207 µg DNA / g scraping. For the same substance, the “increase in rate of DNA-replication compared with the control group” value in data set [1] (spinach study, 0.5 mmol heme / kg diet, 14 days) is recorded as 50%. In addition, the “host DNA detected in the feces compared to the control diet” value in data set [2] (chlorophyll study, 0.5 mmol heme / kg diet, feces of days 11-14 (Figure 4)) is “strong reduction”. In addition, the “exfoliation of colonocytes (rat DNA quantification from faeces)” value in data set [2] (summary of examples 1 and 2, dietary heme) is “inhibited this exfoliation of colonocytes almost completely”. Moreover, in data set [3] (chlorophyll study, 0.5 mmol heme / kg diet, fecal water of rats (Figure 5)), the “cytotoxicity of the fecal water compared with the control diet” value is “increase”. Moreover, the “increase of cytotoxicity of fecal water compared with the control group” value in data set [3] (spinach study, fecal water of rats, 0.5 mmol heme / kg diet) came out at 7 fold. Moreover, in data set [5], the “cytotoxicity of collected size exclusion chromatography fractions” value was “very high”.
